# Experimental data published in patent US20210238162A1, “CHEMICAL COMPOUNDS” (GlaxoSmithKline Intellectual Property Development Limited, priority 2015, published 2021).
# Structures can show the parent of a compound that is named as a salt.
# Target: T1, haematopoietic prostaglandin D synthase (H-PGDS) (Homo sapiens, UniProt O60760)
# T1 construct: Full length human H-PGDS cDNA (Invitrogen Ultimate ORF IOH13026) was amplified by PCR; made in house; host or cells: E. coli BL21 (DE3*), vector pET22b+
# T1 sequence (O60760 whole entry): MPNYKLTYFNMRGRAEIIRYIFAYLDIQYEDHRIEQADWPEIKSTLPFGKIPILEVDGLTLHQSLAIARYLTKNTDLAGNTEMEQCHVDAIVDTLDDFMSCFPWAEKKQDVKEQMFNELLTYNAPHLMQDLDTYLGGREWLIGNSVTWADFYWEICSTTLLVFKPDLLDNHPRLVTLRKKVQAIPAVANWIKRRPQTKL
# Experiment: H-PGDS RapidFire High Throughput Mass Spectrometry Assay
# Format: biochemical
# Conditions: H-PGDS RapidFire MS assay, mean pIC50; read-out: Potency Range (mean pIC50) (converted)
# Method: The H-PGDS RapidFire™ mass spectrometric assay monitors conversion of prostaglandin H2 (PGH2) to prostaglandin D2 (PGD2) by haematopoietic prostaglandin D synthase (H-PGDS). In the assay format described here, the substrate (PGH2) is formed in situ by the action of cyclooxygenase-2 on arachidonic acid. This first step is set up to be fast, and generates a burst of PGH2 at ˜10 μM. The PGH2 is then further converted to PGD2 by the H-PGDS enzyme. […] Plates are then read on the RapidFire™ high throughput solid phase extraction system (Agilent) which incorporates a solid phase extraction step coupled to a triple quadrupole mass spectrometer (AB SCIEX). Relative levels of PGD2 and PGF2α, which acts as a surrogate for substrate, are measured and a percent conversion calculated.
# Full length human H-PGDS cDNA (Invitrogen Ultimate ORF IOH13026) was amplified by PCR with the addition of a 5′ 6-His tag and TEV protease cleavage site. The PCR product was digested with Ndel and Xhol and ligated into pET22b+ (Merck Novagen®). Expression was carried out in E. coli strain BL21 (DE3*) using auto-induction Overnight Express™ Instant TB medium (Merck Novagen®) supplemented with 1% glycerol. The culture was first grown at 37° C. and the temperature was reduced to 25° C. when OD600 reached 2.0. Cells were harvested by centrifugation after a further 18 hr. 10 g of E. coli cell pellet was suspended to a total volume of 80 mL in lysis buffer (20 mM Tris-Cl pH 7.5, 300 mM NaCl, 20 mM imidazole, 5 mM β-mercaptoethanol, 10% glycerol). 1 mg/mL protease inhibitors (Protease Inhibitor Cocktail Set Ill, Merck Calbiochem®) and 1 mg/mL lysozyme were added to the cell suspension. The suspension was then sonicated for 5 min (UltraSonic Processor VCX 750, Cole-Parmer Instrument Co.) with a micro probe (50% amplitude, 10 sec on/off) and then centrifuged at 100,000 g for 90 min (at 4° C.). The supernatant was loaded onto a Ni-NTA HiTrap column (5 mL, GE Heathcare, pre-equilibrated in lysis buffer). The column was washed with 10 column volumes of lysis buffer and eluted with lysis buffer containing 500 mM imidazole. The pooled protein peak fractions were concentrated using a 10 kDa centrifugal filter at 3500 g and 4° C. (Amicon Ultra-15 centrifugal filter unit with Ultracel-10 membrane from Millipore). Further purification of the concentrated protein was carried out using gel filtration chromatography on a HiLoad 26/600 Superdex 75 preparative grade column (GE Healthcare Life Sciences) using 50 mM Tris pH 7.5, 50 mM NaCl, 1 mM dithiothreitol, 1 mM MgCl2. Fractions containing the protein were pooled, concentrated as described above, and stored at −80° C.
# The full length human COX-2 gene (accession number L15326) was amplified by PCR to generate an EcoRI-HindIII fragment containing an in-frame FLAG tag. This was subcloned into pFastBac 1 (Invitrogen). The COX2 FLAG plasmid was recombined into the baculovirus genome according to the BAC-to-BAC protocol described by Invitrogen. Transfection into Spodoptera frugiperda (Sf9) insect cells was performed using Cellfectin (Invitrogen), according to the manufacturer's protocol. […] Recombinant virus was added at a Multiplicity of Infection (MOI) of 5 and the culture was allowed to continue for 3 days. Cells were harvested using a continuous feed centrifuge run at 2500 g at a rate of approximately 2 L/min with cooling. The resultant cell slurry was re-centrifuged in pots (2500 g, 20 min, 4° C.) and the cell paste was stored at −80° C. […] The suspension was sonicated in 500 mL batches for 8×5 seconds at 10 u amplitude with the medium tip of an MSE probe sonicator and subsequently incubated at 4° C. for 90 min with gentle stirring. The lysate was centrifuged at 12000 rpm for 45 min at 4° C. in a Sorvall SLA1500 rotor. The supernatant (1400 mL) was added to 420 mL of 20 mM Tris-Cl pH 7.4, 150 mM NaCl, 0.1 mM EDTA to reduce the concentration of n-octyl-β-D-glucopyranoside to 1% w/v.
row,SMILES,IC50 [nM]
1,"CC(NC[C@H]1CC[C@H](NC(=O)c2cnc3cc(OC(F)F)c(F)cc3c2)CC1)C(F)F (mixture of isomers) [Example 75, 7-(Difluoromethoxy)-N-(trans-4-(((1,1-difluoropropan-2-yl)amino)methyl)cyclohexyl)-6-fluoroquinoline-3-carboxamide]",10 to 79.4
2,"CC1CCN1c1cc2ncc(C(=O)N[C@H]3CC[C@H](C(C)(C)O)CC3)cc2cc1F (mixture of isomers) [Example 170, 6-Fluoro-N-(trans-4-(2-hydroxypropan-2-yl)cyclohexyl)-7-(2-methylazetidin-1-yl)quinoline-3-carboxamide]",10 to 79.4
3,"O=C(N[C@H]1CC[C@H](N[C@H](CO)C(F)(F)F)CC1)c1cnc2cc(OC(F)F)c(F)cc2c1 [Example 77, 7-(Difluoromethoxy)-6-fluoro-N-(trans-4-(((R)-1,1,1-trifluoro-3-hydroxypropan-2-yl)amino)cyclohexyl)quinoline-3-carboxamide]",10 to 79.4
4,"CC(C)(O)[C@H]1CC[C@H](NC(=O)c2cnc3cc(N4CCC4)c(F)cc3c2)CC1 [Example 162, 7-(Azetidin-1-yl)-6-fluoro-N-(trans-4-(2-hydroxypropan-2-yl)cyclohexyl)quinoline-3-carboxamide]",< 10
5,"O=C(N[C@H]1CC[C@H](N[C@@H](CO)C(F)(F)F)CC1)c1cnc2cc(OC(F)F)c(Cl)cc2c1 [Example 131, 6-Chloro-7-(difluoromethoxy)-N-(trans-4-(((S)-1,1,1-trifluoro-3-hydroxypropan-2-yl)amino)cyclohexyl)quinoline-3-carboxamide]",< 10
6,"CCOc1ccc2cc(C(=O)N[C@H]3CC[C@H](C(C)(C)O)CC3)cnc2c1Cl [Example 218, 8-Chloro-7-ethoxy-N-(trans-4-(2-hydroxypropan-2-yl)cyclohexyl)quinoline-3-carboxamide]",10 to 79.4
7,"C[C@H](N[C@H]1CC[C@H](NC(=O)c2cnc3cc(OC(F)F)c(F)cc3c2)CC1)C(F)F [Example 70, 7-(Difluoromethoxy)-N-(trans-4-(((S)-1,1-difluoropropan-2-yl)amino)cyclohexyl)-6-fluoroquinoline-3-carboxamide]",< 10
8,"COc1cc2ncc(C(=O)NC3CCN(c4nnnn4C)CC3)cc2cc1F [Example 46, 6-Fluoro-7-methoxy-N-(1-(1-methyl-1H-tetrazol-5-yl)piperidin-4-yl)quinoline-3-carboxamide]",100 to 1000
9,"O=C(NC1CCN(c2cccnc2)CC1)c1cnc2cc(OC(F)F)c(F)cc2c1 [Example 96, 7-(Difluoromethoxy)-6-fluoro-N-(1-(pyridin-3-yl)piperidin-4-yl)quinoline-3-carboxamide]",10 to 79.4
10,"C[C@H](N[C@H]1CC[C@H](NC(=O)c2cnc3cc(OC(F)F)c(Br)cc3c2)CC1)C(F)F [Example 159, 6-Bromo-7-(difluoromethoxy)-N-(trans-4-(((S)-1,1-difluoropropan-2-yl)amino)cyclohexyl)quinoline-3-carboxamide]",< 10
11,"C[C@H]1CCN1c1cc2ncc(C(=O)N[C@H]3CCNC3=O)cc2cc1F [Example 176, 6-Fluoro-7-((S)-2-methylazetidin-1-yl)-N—((S)-2-oxopyrrolidin-3-yl)quinoline-3-carboxamide]",10 to 79.4
12,"C[C@@H](N[C@H]1CC[C@H](NC(=O)c2cnc3cc(OC(F)F)c(Br)cc3c2)CC1)C(F)F [Example 158, 6-Bromo-7-(difluoromethoxy)-N-(trans-4-(((R)-1,1-difluoropropan-2-yl)amino)cyclohexyl)quinoline-3-carboxamide]",< 10
13,"CS(=O)(=O)N[C@H]1CC[C@H](NC(=O)c2cnc3cc(OC(F)F)c(F)cc3c2)CC1 [Example 56, 7-(Difluoromethoxy)-6-fluoro-N-(trans-4-(methylsulfonamido)cyclohexyl)quinoline-3-carboxamide]",10 to 79.4
14,"O=C(N[C@H]1CC[C@H](N[C@H](CO)C(F)(F)F)CC1)c1cnc2cc(OC(F)F)c(Cl)cc2c1 [Example 135, 6-Chloro-7-(difluoromethoxy)-N-(trans-4-(((R)-1,1,1-trifluoro-3-hydroxypropan-2-yl)amino)cyclohexyl)quinoline-3-carboxamide]",< 10
15,"O=C(Nc1nccs1)c1cnc2cc(OC(F)F)ccc2c1 [Example 10, 7-(Difluoromethoxy)-N-(thiazol-2-yl)quinoline-3-carboxamide]",10 to 79.4
16,"Cc1cc(NC(=O)c2cnc3cc(OC(F)F)ccc3c2)[nH]n1 [Example 8, 7-(Difluoromethoxy)-N-(3-methyl-1H-pyrazol-5-yl)quinoline-3-carboxamide]",10 to 79.4
17,"Cn1nc(C2CC2)cc1NC(=O)c1cnc2cc(OC(F)F)c(Cl)cc2c1 [Example 128, 6-Chloro-N-(3-cyclopropyl-1-methyl-1H-pyrazol-5-yl)-7-(difluoromethoxy)quinoline-3-carboxamide]",10 to 79.4
18,"CC(F)(F)c1cc2ncc(C(=O)N[C@H]3CC[C@H](C(C)(C)O)CC3)cc2cc1Cl [Example 231, 6-Chloro-7-(1,1-difluoroethyl)-N-((trans)-4-(2-hydroxypropan-2-yl)cyclohexyl)quinoline-3-carboxamide]",< 10
19,"O=C(N[C@H]1C[C@](O)(C(F)(F)F)C1)c1cnc2cc(OC(F)F)c(Cl)cc2c1 [Example 232, 6-Chloro-7-(difluoromethoxy)-N-((1s,3s)-3-hydroxy-3-(trifluoromethyl)cyclobutyl)quinoline-3-carboxamide]",< 10
20,"CC(C)(O)C(=O)N1CCN(NC(=O)c2cnc3cc(OC(F)F)c(Cl)cc3c2)CC1 [Example 224, 6-Chloro-7-(difluoromethoxy)-N-(4-(2-hydroxy-2-methylpropanoyl)piperazin-1-yl)quinoline-3-carboxamide]",10 to 79.4
21,"O=C(N[C@H]1CCN(CC2CC2)C1=O)c1cnc2cc(OC(F)F)c(F)cc2c1 [Example 53, (S)—N-(1-(Cyclopropylmethyl)-2-oxopyrrolidin-3-yl)-7-(difluoromethoxy)-6-fluoroquinoline-3-carboxamide]",10 to 79.4
22,"O=C(N[C@H]1C[C@H](N2CC(O)(C(F)(F)F)C2)C1)c1cnc2cc(OC(F)F)c(Cl)cc2c1 [Example 214, 6-Chloro-7-(difluoromethoxy)-N-((trans)-3-(3-hydroxy-3-(trifluoromethyl)azetidin-1-yl)cyclobutyl)quinoline-3-carboxamide]",< 10
23,"O=C(N[C@H]1CCNC1=O)c1cnc2cc(N3CCC3)c(Cl)cc2c1 [Example 166, (S)-7-(Azetidin-1-yl)-6-chloro-N-(2-oxopyrrolidin-3-yl)quinoline-3-carboxamide trifluoroacetic Acid Salt]",< 10
24,"O=C(N[C@H]1CC[C@@](O)(C(F)F)CC1)c1cnc2cc(OC(F)F)c(Cl)cc2c1 [Example 234, 6-Chloro-7-(difluoromethoxy)-N-((1r,4r)-4-(difluoromethyl)-4-hydroxycyclohexyl)quinoline-3-carboxamide]",10 to 79.4
25,"CCc1cccc2cc(C(=O)Nc3nccs3)cnc12 [Example 105, 8-Ethyl-N-(thiazol-2-yl)quinoline-3-carboxamide]",100 to 1000

# Same assay, conditions: in at least one experimental run; read-out: H-PGDS pIC50 value (converted)
row,SMILES,IC50 [nM]
1,"COc1cc2ncc(C(=O)NC3CCN(c4nnnn4C)CC3)cc2cc1F [Example 46, 6-Fluoro-7-methoxy-N-(1-(1-methyl-1H-tetrazol-5-yl)piperidin-4-yl)quinoline-3-carboxamide]",126
2,"O=C(N[C@H]1C[C@H](N2CC(O)(C(F)(F)F)C2)C1)c1cnc2cc(OC(F)F)c(Cl)cc2c1 [Example 214, 6-Chloro-7-(difluoromethoxy)-N-((trans)-3-(3-hydroxy-3-(trifluoromethyl)azetidin-1-yl)cyclobutyl)quinoline-3-carboxamide]",6.31
